Measurements from ChEMBL document CHEMBL1862790, “Optimisation of fenarimol series for the treatment of Chagas disease”.

Assays:
[1] = DNDI: Cytotoxicity against L-6 rat myoblasts from skeletal muscle cells; conditions: L6 rat skeletal muscle myoblast cells, IC50
Trypanosoma cruzi [2] = assay: microbe, parasite or virus in culture; format: functional, organism-based, Tulahuen LacZ, Clone C4; conditions: Trypanosoma cruzi, Tulahuen LacZ, Clone C4
Trypanosoma cruzi [3] = assay: microbe, parasite or virus in culture; format: functional, Tulahuen LacZ, Clone C4
[4] = Trypanosoma cruzi, Tulahuen LacZ, Clone C4

Structure (SMILES) | IC50 [1] [µM] | IC50 (Trypanosoma cruzi [2]) [µM] | IC90 (Trypanosoma cruzi [3]; [4]) [µM] | IC90 (Trypanosoma cruzi [3]) [µM]
CC(C)(C)C(=O)N1CCC(NC(c2ccc(C(F)(F)F)cc2)c2cccnc2)CC1 (stereo not given) | > 100 | 0.024 | 0.266 | –
CC(C)Oc1ccc(C(NC2CCN(C(=O)Nc3ccccc3)CC2)c2cccnc2)cc1 (stereo not given) | 72.1 | 0.072 | 0.25 | –
O=C(N1CCN(C(c2cccnc2)c2ccc(Cl)cc2F)CC1)C(F)(F)F (stereo not given) | > 100 | 0.32 | 0.83 | –
CC(C)Oc1ccc(C(c2cccnc2)N(C(=O)C2CC2)C2CCN(C(=O)C3CC3)CC2)cc1 (stereo not given) | > 100 | > 1 | > 1 | –
O=C(NC1CCN(C(c2ccc(C(F)(F)F)cc2)c2cccnc2)CC1)c1ccccc1 (stereo not given) | 62.6 | 0.0085 | 0.0575 | –
Cc1ncoc1C(=O)NC1CCN(C(c2ccc(C(F)(F)F)cc2)c2cccnc2)CC1 (stereo not given) | 84.7 | 0.029 | 0.12 | –
Cc1cc(C(=O)N2CCC(NC(c3ccc(C(F)(F)F)cc3)c3cccnc3)CC2)no1 (stereo not given) | > 100 | 0.12 | 0.35 | –
CS(=O)(=O)NC1CCN(C(c2cccnc2)c2ccc(Cl)cc2F)CC1 (stereo not given) | > 100 | 0.083 | 0.364 | –
Cc1cc(C(=O)N2CCN(C(c3cccnc3)c3ccc(Cl)cc3F)CC2)no1 (stereo not given) | 69.7 | 0.0665 | 0.279 | –
CC(C)Oc1ccc(C(O)(c2ccc(Cl)cc2)c2cncnc2)cn1 (stereo not given) | 85.9 | 0.04 | 0.1 | –
CS(=O)(=O)NC1CCN(C(c2ccc(Cl)cc2)c2cncnc2)CC1 (stereo not given) | > 100 | 0.63 | > 1 | –
O=C(c1cscn1)N1CCC(NC(c2ccc(C(F)(F)F)cc2)c2cccnc2)CC1 (stereo not given) | > 100 | 0.218 | 0.833 | –
CCN(CC)C(=O)NC1CCN(C(c2ccc(Cl)cc2)c2cccnc2)CC1 (stereo not given) | > 100 | 0.12 | 0.73 | –
O=C(C1CC1)N1CCN(C(c2ccc(C(F)(F)F)cc2)c2cccnc2)CC1 (stereo not given) | > 100 | 0.0505 | 0.183 | –
O=C1NCCN1C1CCN(C(c2ccc(Cl)cc2)c2cccnc2)CC1 (stereo not given) | 67.8 | 0.04 | 0.173 | –
CCN(CC)C(=O)N1CCC(NC(c2ccc(OC(C)C)cc2)c2cccnc2)CC1 (stereo not given) | > 100 | 0.007 | 0.036 | –
CC(C)(C)OC(=O)NC1CCN(C(c2ccc(C(F)(F)F)cc2)c2cccnc2)CC1 (stereo not given) | 48 | 0.011 | 0.038 | –
CCN(CC)C(=O)NC1CCN(C(c2ccc(Cl)cc2)c2cncnc2)CC1 (stereo not given) | > 100 | 0.11 | 0.86 | –
O=C(Nc1ccccc1)NC1CCN(C(c2cncnc2)c2ccc(Cl)cc2F)CC1 (stereo not given) | 56.1 | 0.03 | 0.19 | –
Cc1cc(C(=O)NC2CCN(C(c3cncnc3)c3ccc(Cl)cc3F)CC2)no1 (stereo not given) | > 100 | 0.076 | 0.377 | –
CS(=O)(=O)NC1CCN(C(c2ccc(Cl)cc2)c2cccnc2)CC1 (stereo not given) | > 100 | 0.1 | 0.64 | –
O=C(NC1CCN(C(c2ccc(C(F)(F)F)cc2)c2cccnc2)CC1)C1CC1 (stereo not given) | > 100 | 0.072 | 0.28 | –
CC(C)Oc1ccc(C(c2cccnc2)N2CCC(NC(=O)OC(C)(C)C)CC2)cc1 (stereo not given) | 56 | 0.025 | 0.08 | –

Structure (SMILES) | IC50 [1] [µM] | IC50 (Trypanosoma cruzi [2]) [µM] | IC90 (Trypanosoma cruzi [3]; [4]) [µM] | IC90 (Trypanosoma cruzi [3]) [µM]
Cc1ncsc1C(=O)NC1CCN(C(c2cncnc2)c2ccc(Cl)cc2F)CC1 (stereo not given) | > 100 | 0.0785 | 0.435 | –
N#Cc1ccc(C(c2cccnc2)N2CCC(NC(=O)Nc3ccccc3)CC2)cc1 (stereo not given) | > 100 | 0.029 | 0.095 | –
CCN(CC)C(=O)NC1CCN(C(c2ccc(OC(C)C)cc2)c2cccnc2)CC1 (stereo not given) | > 100 | 0.087 | 0.28 | –
Cc1cc(C(=O)NC2CCN(C(c3ccc(C(F)(F)F)cc3)c3cccnc3)CC2)[nH]n1 (stereo not given) | 73.1 | 0.048 | 0.15 | –
Cc1ncsc1C(=O)NC1CCN(C(c2ccc(C(F)(F)F)cc2)c2cccnc2)CC1 (stereo not given) | 60.4 | 0.018 | 0.082 | –
CC(C)Oc1ccc(C(NC2CCN(C(=O)c3ccccc3)CC2)c2cccnc2)cc1 (stereo not given) | > 100 | 0.074 | 0.27 | –
FC(F)(F)c1ccc(C(NC2CCN(c3nccs3)CC2)c2cccnc2)cc1 (stereo not given) | 56.4 | 0.0055 | – | 0.42
CS(=O)(=O)NC1CCN(C(c2ccc(C(F)(F)F)cc2)c2cccnc2)CC1 (stereo not given) | > 100 | 0.05 | 0.15 | –
CCN(CC)C(=O)NC1CCN(C(c2cncnc2)c2ccc(Cl)cc2F)CC1 (stereo not given) | 58.1 | 0.05 | 0.25 | –
O=C(NC1CCN(C(c2ccc(Cl)cc2)c2cncnc2)CC1)c1ccccc1 (stereo not given) | 90.8 | 0.075 | 0.79 | –
Cc1cc(C(=O)N2CCC(NC(c3ccc(C(F)(F)F)cc3)c3cccnc3)CC2)[nH]n1 (stereo not given) | > 100 | 0.2 | 0.64 | –
Cc1ncsc1C(=O)N1CCN(C(c2cccnc2)c2ccc(Cl)cc2F)CC1 (stereo not given) | 92.7 | 0.036 | 0.243 | –
O=C(Nc1ccccc1)NC1CCN(C(c2ccc(C(F)(F)F)cc2)c2cccnc2)CC1 (stereo not given) | 31.7 | 0.014 | 0.036 | –
O=C(NC1CCN(C(c2cncnc2)c2ccc(Cl)cc2F)CC1)c1ccccc1 (stereo not given) | 82.4 | 0.022 | 0.11 | –
O=C(Nc1ccccc1)NC1CCN(C(c2ccc(Cl)cc2)c2cncnc2)CC1 (stereo not given) | 54.4 | 0.1 | > 1 | –
Cc1cc(C(=O)NC2CCN(C(c3ccc(C(F)(F)F)cc3)c3cccnc3)CC2)no1 (stereo not given) | 47.4 | 0.0093 | 0.027 | –
O=C(NC1CCN(C(c2cncnc2)c2ccc(Cl)cc2F)CC1)c1ccc(F)cc1 (stereo not given) | 60.1 | 0.0215 | 0.114 | –
CC(C)Oc1ccc(C(NC2CCN(C(=O)OC(C)(C)C)CC2)c2cccnc2)cc1 (stereo not given) | 58.8 | 0.0062 | 0.011 | –
CC(C)Oc1ccc(C(c2cccnc2)N2CCC(NS(C)(=O)=O)CC2)cc1 (stereo not given) | > 100 | 0.11 | 0.32 | –
O=C(NC1CCN(C(c2cccnc2)c2ccc(Cl)cc2F)CC1)c1ccccc1 (stereo not given) | 56.4 | 0.00825 | 0.0833 | –
NC(=O)c1cccc(C(O)(c2cncnc2)c2ccc(Cl)cc2F)c1 (stereo not given) | > 100 | 0.0865 | 0.426 | –
O=C(c1ccc(F)c(C(O)(c2ccc(Cl)cc2)c2cccnc2)c1)N1CCOCC1 (stereo not given) | > 100 | 0.048 | 0.19 | –
CC(C)Oc1ccc(C(NC2CCN(S(C)(=O)=O)CC2)c2cccnc2)cc1 (stereo not given) | > 100 | 0.14 | 0.38 | –

Structure (SMILES) | IC50 [1] [µM] | IC50 (Trypanosoma cruzi [2]) [µM] | IC90 (Trypanosoma cruzi [3]; [4]) [µM] | IC90 (Trypanosoma cruzi [3]) [µM]
O=C(NC1CCN(C(c2ccc(Cl)cc2)c2cncnc2)CC1)C1CC1 (stereo not given) | > 100 | 0.48 | > 1 | –
CS(=O)(=O)N1CCC(C(O)(c2ccc(Cl)cc2)c2cccnc2)CC1 (stereo not given) | > 100 | 0.2 | 0.55 | –
Cc1ncoc1C(=O)N1CCC(NC(c2ccc(C(F)(F)F)cc2)c2cccnc2)CC1 (stereo not given) | > 100 | 0.14 | 0.54 | –
CC(C)Oc1ccc(C(c2cccnc2)N2CCC(NC(=O)C3CC3)CC2)cc1 (stereo not given) | > 100 | 0.38 | 0.86 | –
CC(C)(C)OC(=O)NC1CCN(C(c2cncnc2)c2ccc(Cl)cc2F)CC1 (stereo not given) | > 100 | 0.059 | 0.19 | –
Cc1cc(C(=O)NC2CCN(C(c3cncnc3)c3ccc(Cl)cc3F)CC2)[nH]n1 (stereo not given) | > 100 | 0.173 | 0.756 | –
O=C(NC1CCN(C(c2cncnc2)c2ccc(Cl)cc2F)CC1)C1CC1 (stereo not given) | > 100 | 0.15 | 0.48 | –
CC(C)Oc1ccc(C(O)(c2cccnc2)c2cccc(C(N)=O)c2)cc1 (stereo not given) | 69.7 | 0.092 | 0.33 | –
CC(C)Oc1ccc(C(c2cccnc2)N2CCC(NC(=O)c3ccccc3)CC2)cc1 (stereo not given) | > 100 | 0.061 | 0.18 | –
CCN(CC)C(=O)NC1CCN(C(c2ccc(C#N)cc2)c2cccnc2)CC1 (stereo not given) | > 100 | 0.028 | 0.085 | –
NC(=O)c1cccc(C(O)(c2ccc(Cl)cc2)c2cncnc2)c1 (stereo not given) | > 100 | 0.92 | 2.78 | –
O=C(NC1CCN(C(c2ccc(Cl)cc2)c2cccnc2)CC1)C1CC1 (stereo not given) | 84.1 | 0.078 | 0.58 | –
O=C(NC1CCN(C(c2cccnc2)c2ccc(Cl)cc2F)CC1)C1CC1 (stereo not given) | > 100 | 0.038 | 0.13 | –
CC(C)Oc1ccc(C(c2cccnc2)N2CCC(NC(=O)Nc3ccccc3)CC2)cc1 (stereo not given) | 74.2 | 0.057 | 0.11 | –
CS(=O)(=O)N1CCN(C(c2ccc(C(F)(F)F)cc2)c2cccnc2)CC1 (stereo not given) | > 100 | 0.0765 | 0.572 | –
O=C(NC1CCN(C(c2cncnc2)c2ccc(Cl)cc2F)CC1)c1cccc(F)c1 (stereo not given) | 61.2 | 0.0405 | 0.204 | –
CS(=O)(=O)NC1CCN(C(c2ccc(C#N)cc2)c2cccnc2)CC1 (stereo not given) | > 100 | 0.6 | > 1 | –
CC(C)(C)OC(=O)NC1CCN(C(c2ccc(C#N)cc2)c2cccnc2)CC1 (stereo not given) | > 100 | 0.026 | 0.1 | –
O=C(N1CCN(C(c2ccc(C(F)(F)F)cc2)c2cccnc2)CC1)C(F)(F)F (stereo not given) | 62.6 | 0.321 | 0.797 | –
O=C(C1CC1)N1CCN(C(c2cccnc2)c2ccc(Cl)cc2F)CC1 (stereo not given) | > 100 | 0.026 | 0.082 | –
O=C(NC1CCN(C(c2cncnc2)c2ccc(Cl)cc2F)CC1)c1ccccc1F (stereo not given) | > 100 | 0.0175 | 0.0955 | –
N#Cc1ccc(C(c2cccnc2)N2CCC(NC(=O)c3ccccc3)CC2)cc1 (stereo not given) | > 100 | 0.024 | 0.079 | 0.09
